Laboratory results as given in PubChem BioAssay (NCI).
Where “and” joins values, the source holds several entries; their conditions need not be identical. Identical values can stand only once.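 Compound exposure: 48 hours, 5 concentrations, 96-well plates. At the GI50, growth is halved. The concentration for full growth arrest is given as TGI.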

Experiments:
Test in all cases: inhibition of tumour cell growth, NCI panel, 48 h
HT29 colon = system: HT29 colon
SK-OV-3 ovarian = system: SK-OV-3 ovarian
UACC-257 melanoma = system: UACC-257 melanoma
MDA-MB-231 breast = system: MDA-MB-231 breast
T-47D breast = system: T-47D breast
HOP-62 NSCLC = system: HOP-62 NSCLC
KM12 colon = system: KM12 colon
RXF 393 renal = system: RXF 393 renal
OVCAR-4 ovarian = system: OVCAR-4 ovarian
NCI-H23 lung = system: NCI-H23 lung

Structure (SMILES)	GI50 (HT29 colon)	TGI (HT29 colon)	GI50 (SK-OV-3 ovarian)	TGI (SK-OV-3 ovarian)	GI50 (UACC-257 melanoma)	TGI (UACC-257 melanoma)	GI50 (MDA-MB-231 breast)	TGI (MDA-MB-231 breast)	GI50 (T-47D breast)	TGI (T-47D breast)	GI50 (HOP-62 NSCLC)	TGI (HOP-62 NSCLC)	GI50 (KM12 colon)	TGI (KM12 colon)	GI50 (RXF 393 renal)	TGI (RXF 393 renal)	GI50 (OVCAR-4 ovarian)	TGI (OVCAR-4 ovarian)	GI50 (NCI-H23 lung)	TGI (NCI-H23 lung)
COc1ccc2c(c1)C(=O)/C(=C/c1ncc([N+](=O)[O-])n1C)O2	0.244 µM	0.78 µM	2.11 µM	6.43 µM	1.41 µM	6.82 µM	0.299 µM	0.826 µM	4.2 µM	> 100 µM	2.07 µM	5.03 µM	0.279 µM	0.973 µM	1.01 µM	3.03 µM	2.27 µM	7.12 µM	1.02 µM	4.76 µM
O=c1[nH]cnc2[nH]ncc12	842 µM	> 5000 µM	> 85.9 µM and 111 µM	> 4080 µM	788 µM	> 5000 µM	163 µM	1750 µM	698 µM	> 5000 µM	353 µM	> 5000 µM	1250 µM	> 5000 µM	266 µM	> 5000 µM	160 µM	> 3050 µM	227 µM	> 1870 µM
C#Cc1c(C(N)=O)ncn1C1OC(COP(=O)(OCc2ccc([N+](=O)[O-])o2)N(C)CCCCCl)C(O)C1O (stereo not given)	13.3 µM	> 100 µM	77 µM	> 100 µM	35.2 µM	> 100 µM	> 100 µM	> 100 µM	12.7 µM	> 100 µM	49.3 µM	> 100 µM	42.7 µM	> 100 µM	> 100 µM	> 100 µM	> 100 µM	> 100 µM	5.99 µM	73.6 µM
O=C(c1ccco1)c1c(C(F)(F)F)n([O-])c2ccccc2[n+]1=O	4.2 µM	50 µM	6.69 µM	21 µM	4.32 µM	14.7 µM	0.772 µM	3.6 µM	1.97 µM	29.7 µM	0.949 µM	4.34 µM	0.911 µM	8.18 µM	1.43 µM	9.45 µM	5.45 µM	15.4 µM	1.21 µM	7.26 µM
COc1ccc(C(=O)c2cc3c(OC)c(OC)c(OC)cc3[nH]2)cc1	4 µM	> 100 µM	> 100 µM	> 100 µM	> 100 µM	> 100 µM	4.96 µM	> 100 µM	4.53 µM	> 100 µM	19.6 µM	80.9 µM	2.36 µM	> 100 µM	10.2 µM	95.7 µM	> 100 µM	> 100 µM	6.25 µM	> 100 µM
Cc1cc(Nc2ncnc3ccc(NC4=NC(C)(C)CO4)cc23)ccc1Oc1ccn2ncnc2c1	14.4 µM and > 10 µM	38.7 µM and > 10 µM	0.0526 µM	> 94.1 µM	16.9 µM and > 10 µM	33.1 µM and > 10 µM	14.1 µM and > 10 µM	44.9 µM and > 10 µM	1.33 µM and 1.75 µM	12.8 µM and > 10 µM	17.6 µM and > 10 µM	45.7 µM and > 10 µM	15.6 µM and > 10 µM	32.1 µM and > 10 µM	12.7 µM and > 10 µM	28.9 µM and > 10 µM	15.1 µM and > 10 µM	99 µM and > 10 µM	17 µM and > 10 µM	41.7 µM and > 10 µM
